{"source": "patent US9517241B2", "about": "“Amelioration of intestinal fibrosis and treatment of Crohn's disease” (THE REGENTS OF THE UNIVERSITY OF MICHIGAN, priority 2013, dated 2016)", "assay_type_in_all_cases": "cell-based, human", "key": {"[1]": {"tested_on": "PTGS2 (which encodes the COX-2 enzyme)", "test": "Matrix stiffness model: QRT-PCR of PTGS2", "settings": "low and high stiffness, 1000 nM CARD-024", "description": "(§1) Cells were plated at 30-40% confluence. To stimulate a fibrotic phenotype, Ccd-18co cells were serum-starved for 24 h prior to treatment with 1 ng/ml TGFβ or 1 ng/ml TGFβ and increasing doses of CARD-024 (10-1000 nM) for 48 h. Given ethanol was used to dilute CARD-024, ethanol was added to the untreated and TGFβ treated cells to a final concentration of 0.1%. For stiffness experiments, low-passage number Ccd-18co cells were seeded at 1×10^5 cells/ml on 6-well plates containing collagen-coated acrylamide gels corresponding to soft (4.3 kPa, 0.02% bisacrylamide) or stiff (28.1 kPa, 0.16%) matrices. Cells were allowed to attach to the matrix for 4 h and then the gels were transferred to new wells to avoid paracrine signaling from cells attached to the plastic well bottom. […]\n(§2) RNA from Ccd-18co cells was extracted using the RNeasy kit (Qiagen, Valencia, Calif.). cDNA was generated by reverse transcription of 1 μg of total RNA using the Superscript First Strand RT kit (Invitrogen, Carlsbad, Calif.). Quantitative real-time PCR (qPCR) was performed for MLCK, IL-1β, PTGS2, ET-1, and GAPDH with the TaqMan gene expression assays (ABI, Foster City, Calif.) on a Bio-Rad iCycler real-time PCR system. […] Gene expression was normalized to GAPDH as the endogenous control, and fold-changes (RQ) relative to untreated controls were calculated using the […] (Livak and Schmittgen, 2001)."}, "Fn-1 gene expression": {"tested_on": "Fn-1 gene expression", "test": "Matrix stiffness model: expression of Fn-1", "settings": "CARD-024 treatment", "description": "(§3) Cells were plated at 30-40% confluence. To stimulate a fibrotic phenotype, Ccd-18co cells were serum-starved for 24 h prior to treatment with 1 ng/ml TGFβ or 1 ng/ml TGFβ and increasing doses of CARD-024 (10-1000 nM) for 48 h. Given ethanol was used to dilute CARD-024, ethanol was added to the untreated and TGFβ treated cells to a final concentration of 0.1%. For stiffness experiments, low-passage number Ccd-18co cells were seeded at 1×10^5 cells/ml on 6-well plates containing collagen-coated acrylamide gels corresponding to soft (4.3 kPa, 0.02% bisacrylamide) or stiff (28.1 kPa, 0.16%) matrices. Cells were allowed to attach to the matrix for 4 h and then the gels were transferred to new wells to avoid paracrine signaling from cells attached to the plastic well bottom. For the CARD-024 stiffness experiments, cells were plated as described above and serum-starved overnight prior to treatment with 1000 nM of CARD-024 diluted in 100% ethanol for 24 h. The 1000 nM CARD-024 dose was selected from the results of the TGFβ experiments. Since ethanol was used to dilute CARD-024, ethanol was added to untreated cells to a final concentration of 0.1%.Experiments were performed on early (4 to 7) passage cells. Cultures were routinely assayed for mycoplasma contamination.\n(§4) Prior to seeding with colonic myofibroblasts, the acrylamide gels were collagen-coated. […]"}, "[2]": {"tested_on": "fibrogenic genes (col1A1, Fn1, MLCK, ET-1) in Ccd-18co colonic myofibroblasts", "test": "TGFβ-stimulated colonic myofibroblasts, fibrogenic gene expression", "settings": "TGFβ1-stimulated Ccd-18co colonic myofibroblasts", "description": "as §1, §2"}, "IL-1β expression": {"tested_on": "IL-1β expression", "test": "Matrix stiffness model: QRT-PCR of IL-1β", "settings": "1000 nM CARD-024, relative to untreated/low stiffness", "description": "as §1, §2"}, "[3]": {"tested_on": "Ccd-18co colonic myofibroblasts", "test": "Matrix stiffness model: confocal immunofluorescence of focal adhesions (vinculin) and actin stress fibers (phalloidin)", "settings": "stiff substrate, 1000 nM CARD-024", "description": "as §3, with “Since ethanol was used to dilute CARD-024, ethanol was added to untreated cells to a final concentration of 0.1%.Experiments were performed on early (4 to 7) passage cells. Cultures were routinely assayed for mycoplasma contamination.” left out\nExpression of activated myofibroblast markers was analyzed by confocal immunofluorescence microscopy using the Olympus FluoView™ FV500/IX system (Olympus America, Center Valley, Pa.) at the University of Michigan Microscopy and Image Analysis Laboratory. […]"}, "MLCK gene expression": {"tested_on": "MLCK gene expression", "test": "Matrix stiffness model: QRT-PCR of MLCK", "settings": "high stiffness substrate, 1000 nM CARD-024", "description": "as §1, §2"}, "[4]": {"tested_on": "αSMA protein expression in colonic myofibroblasts", "test": "Matrix stiffness model: αSMA protein expression (Western blot)", "settings": "high stiffness substrate, 1000 nM CARD-024", "description": "as §1, with “matrices.” for “matrices. Cells were allowed to attach to the matrix for 4 h and then the gels were transferred to new wells to avoid paracrine signaling from cells attached to the plastic well bottom.”\n(§5) Total protein was separated by SDS polyacrylamide gel electrophoresis (Bio-Rad,) with prestained protein markers loaded for molecular mass determination (Invitrogen, Carlsbad, Calif.), and transferred to PVDF membranes (Amersham Biosciences, Piscataway, N.J.). Membranes were blocked in 5% milk/TBST solution for 1 h at room temperature or overnight at 4° C. α-smooth muscle actin was detected by incubating the membrane overnight at 4° C. with mouse anti-human monoclonal antibody (Sigma, St. Louis, Mo.) at 1:5000 dilution in 5% milk/TBST.\n(§6) pFAK was detected using a rabbit polyclonal phosphospecific antibody against Tyr-397-FAK (Invitrogen) at 1:5000. […] Autoradiographs were scanned and quantitated using ImageJ analysis software (NIH, Bethesda, Md.)."}, "[5]": {"tested_on": "αSMA protein expression in Ccd-18co cells", "test": "TGFβ-stimulated colonic myofibroblasts, αSMA protein expression (Western blot)", "description": "Colonic human myofibroblast Ccd-18co cells (CRL-1459 from ATCC) were cultured in alpha-MEM (Invitrogen, Carlsbad, Calif.) supplemented with 10% fetal bovine serum and sub-cultured weekly.\nCells were plated at 30-40% confluence. To stimulate a fibrotic phenotype, Ccd-18co cells were serum-starved for 24 h prior to treatment with 1 ng/ml TGFβ or 1 ng/ml TGFβ and increasing doses of CARD-024 (10-1000 nM) for 48 h. Given ethanol was used to dilute CARD-024, ethanol was added to the untreated and TGFβ treated cells to a final concentration of 0.1%. […]\nas §5, §6"}, "ET-1 gene expression": {"tested_on": "ET-1 gene expression", "test": "Matrix stiffness model: QRT-PCR of ET-1", "settings": "high stiffness conditions, 1000 nM CARD-024", "description": "as §1, §2"}, "[6]": {"tested_on": "phosphorylation of focal adhesion kinase (FAK)", "test": "Matrix stiffness model: pFAK protein expression (Western blot)", "settings": "high stiffness matrix, 1000 nM CARD-024", "description": "as §1\npFAK was detected using a rabbit polyclonal phosphospecific antibody against Tyr-397-FAK (Invitrogen) at 1:5000. […] After washing, the membranes were incubated with the appropriate secondary antibody (anti-mouse IgG+HRP or anti-rabbit IgG+HRP, Amersham, Piscataway, N.J.) for 1 h at room temperature and the signal was detected by the Pierce detection system (Pierce, Rockford, Ill.). Autoradiographs were scanned and quantitated using ImageJ analysis software (NIH, Bethesda, Md.)."}, "[7]": {"tested_on": "Ccd-18co colonic myofibroblasts", "test": "Matrix stiffness model: cell morphology, cell length and cell count (microscopy)", "settings": "for dendrite length: 1000 nM CARD-024, 24 h", "description": "as §3\nCollagen-coated polyacrylamide gels corresponding to physiological stiffnesses of 2.6 kPa to 28.1 kPa were generated using varying ratios of 40% acrylamide to 2% bisacrylamide (Bio-Rad, Hercules, Calif.) (Aplin and Hughes, 1981; Pelham and Wang, 1998). Specifically, an aqueous solution of 0.10% ammonium persulfate (Bio-Rad), 0.15% TEMED (Bio-Rad), 40% acrylamide solution was supplemented with 0.01%, 0.02%, 0.08%, or 0.16% bisacrylamide. The acrylamide gels were polymerized on a NaOH treated, amino-silanated (3-aminopropyltriethoxysilane), and glutaraldehyde treated 25 mm round glass coverslip. […] of each acrylamide/bisacrylamide solution was filter sterilized and pipetted unto a chloro-silanated glass surface treated with dichlorodimethylsilane (DCDMS) and a treated coverslip was inverted onto the acrylamide/biacrylamide solution. The acrylamide matrix was allowed to polymerize for 10 min between the two surfaces and transferred to a 6-well tissue culture plate containing sterile PBS. As determined by a series of stability experiments (data not shown), the acrylamide gels were stable for at least 1 month. […]\nCells were photographed using a Leica (Leica Microsystems Inc., Buffalo Grove, Ill.) DMIRB inverted microscope and photographed with an Olympus DP-30 camera (Center Valley, Pa.). Cell length was determined from photomicrographs using ImageJ (NIH, Bethesda, Md.). Cell count was determined from a minimum of 3 representative photographs of a 100× magnification field. […]"}, "colA1 gene expression": {"tested_on": "colA1 gene expression", "test": "Matrix stiffness model: expression of colA1", "settings": "CARD-024 treatment", "description": "as §3, §4"}}, "data": [{"smiles": "C=C1/C(=C\\C=C2/CCC[C@]3(C)[C@@H]([C@H](C)CC[C@@H](CC)C(C)C)CC[C@@H]23)C[C@@H](O)C[C@@H]1O", "note": "[CARD-024, (1S,3R)-(5Z,7E)-9,10-Secositosta-5,7,10(19)-triene-1,3-diol]", "values": [{"measurement": "PTGS2 expression", "setting": "[1]", "value": "induced PTGS2 at both low and high stiffness"}, {"measurement": "Fn-1 expression", "setting": "Fn-1 gene expression", "value": "did not repress"}, {"measurement": "fibrogenic gene expression", "setting": "[2]", "value": "minimal impact on fibrogenic gene expression"}, {"measurement": "induction of IL-1β expression", "setting": "IL-1β expression; high stiffness, p=0.002", "value": 1.8, "unit": "fold"}, {"measurement": "induction of IL-1β expression", "setting": "IL-1β expression; low stiffness", "value": 4, "unit": "fold"}, {"measurement": "focal adhesions (vinculin staining)", "setting": "[3]", "value": "inhibited focal adhesion maturation"}, {"measurement": "MLCK expression", "setting": "MLCK gene expression", "value": "significantly repressed MLCK expression to levels comparable to untreated cells on the low stiffness substrate"}, {"measurement": "αSMA expression", "setting": "[4]", "value": "repressed αSMA expression on the high stiffness substrate to levels indistinguishable from the low stiffness substrate"}, {"measurement": "αSMA protein expression, dose response", "setting": "[5]; Ccd-18co cells stimulated with TGFβ, 10-1000 nM CARD-024", "value": "attenuated αSMA protein expression in a dose-responsive manner"}, {"measurement": "attenuation of αSMA protein expression", "setting": "[5]; Ccd-18co cells, 1 ng/ml TGFβ, 1000 nM CARD-024, 48 h, normalized to GAPDH, p=0.012", "value": 2, "unit": "fold"}, {"measurement": "ET-1 expression", "setting": "ET-1 gene expression", "value": "significantly repressed ET-1 expression in high stiffness conditions to levels indistinguishable from low stiffness conditions"}, {"measurement": "FAK phosphorylation", "setting": "[6]", "value": "inhibited FAK phosphorylation"}, {"measurement": "dendrite length", "setting": "[7]; high stiffness (28.1 kPa) matrix", "value": 145, "unit": "μm"}, {"measurement": "cell morphology", "setting": "[7]; high stiffness substrate, 1000 nM CARD-024", "value": "repressed the effects of matrix stiffness on cell morphology"}, {"measurement": "dendrite length", "setting": "[7]; low stiffness (4.3 kPa) matrix", "value": 146, "unit": "μm"}, {"measurement": "reduction in cell number compared to untreated cells", "setting": "[7]; stiff matrix (28.1 kPa), 1000 nM CARD-024, not significant", "value": 50, "unit": "%"}, {"measurement": "colA1 expression", "setting": "colA1 gene expression", "value": "did not repress"}]}]}
